Source: patent US5389663A, “1-(1h-1,2,4-triazole-yl)-2-propanol compounds” (Takeda Chemical Industries, Ltd., priority 1991, dated 1995)

What follows are molecules tested on Candida albicans (assay: Protective effect against Candida albicans infection in mice). Settings: 168 h, po, minimum lethal dose of Candida albicans iv, drug once immediately after infection, survival 7 days after infection.
Type: in vivo, Crj:CDF1 mice
Excerpt: Test Method: Five-week old Crj:CDF1 mice were inoculated with the minimum lethal dose of Candida albicans intravenously. The test drug was given once immediately after infection. The effectiveness of the drug was expressed in ED50 values calculated by the Reed and Muench method from the survival rate 7 days after infection.

| Structure (SMILES) | ED50 [mg/kg] |
| --- | --- |
| CC(=C(Cn1cncn1)c1ccc(F)cc1F)S(=O)(=O)N(C)C (single isomer, unassigned) [Compound 35, N,N-dimethyl-3-(2,4-difluorophenyl)-4-(1H-1,2,4-triazol-1-yl)-2-butene-2-sulfonamide] | 20 |
| CCCCNS(=O)(=O)[C@H](C)[C@](O)(Cn1cncn1)c1ccc(F)cc1F [Compound 4, N-butyl-[(2R,3R)-3-(2,4-difluorophenyl)-3-hydroxy-4-(1H-1,2,4-triazol-1-yl)-2-butane]sulfonamide] | 7.07 |
| C[C@H]([C@](O)(Cn1cncn1)c1ccc(F)cc1F)S(=O)(=O)NC1CCCCC1 [Compound 6, N-cyclohexyl-[(2R,3R)-3(2,4-difluorophenyl)-3-hydroxy-4-(1H-1,2,4-triazol-1-yl)-2-butane]sulfonamide] | 7.07 |

The molecules below were run on Candida albicans IFO 0583 (assay: Paper disc agar diffusion, growth inhibition zone, Candida albicans IFO 0583). Settings: Candida albicans, IFO0583, 48 h, Table 5; Medium A, 28° C., two-day culture, 1000 μ/ml, 8 mm disc; read-out: Diameter of growth-inhibition zone.
Type: cell-based
Description: Evaluation of the antifungal activities of the compound of formula (I) was conducted by the following method: a sheet of filter paper disc (manufactured by Toyo Seisakusho, 8 mm in diameter) soaked in a […] solution of a compound of formula (I) in methanol was placed on an agar plate containing various fungi, which was incubated at 28° C. for two days, and the diameter of the growth inhibition zone around the filter paper disc was measured. The following culture media were used: A: yeast nitrogen base agar medium (pH 7.0) B: Sabouraud agar medium
cpd. No. (Medium A, 28° C., two-day culture)

| Structure (SMILES) | zone of inhibition at 1000 µg/mL [mm] |
| --- | --- |
| CCCCNS(=O)(=O)[C@H](C)[C@](O)(Cn1cncn1)c1ccc(F)cc1F [Compound 4, N-butyl-[(2R,3R)-3-(2,4-difluorophenyl)-3-hydroxy-4-(1H-1,2,4-triazol-1-yl)-2-butane]sulfonamide] | 40 |
| C[C@H]([C@](O)(Cn1cncn1)c1ccc(F)cc1F)S(=O)(=O)NC1CCCCC1 [Compound 6, N-cyclohexyl-[(2R,3R)-3(2,4-difluorophenyl)-3-hydroxy-4-(1H-1,2,4-triazol-1-yl)-2-butane]sulfonamide] | 40 |
| C[C@H]([C@](O)(Cn1cncn1)c1ccc(F)cc1F)S(=O)(=O)N(C)C/C=C\C#CC(C)(C)C [Compound 69] | 42 |
| COc1ccc(N2CCN(S(=O)(=O)[C@H](C)[C@](O)(Cn3cncn3)c3ccc(F)cc3F)CC2)cc1 [Compound 72, 4-[(2R,3R)-3-(2,4-difluorophenyl)-3-hydroxy-4-(1H-1,2,4-triazol-1-yl)-2-butanesulfonyl]-1-(4-methoxyphenyl)piperazine] | 48 |
| C[C@H]([C@](O)(Cn1cncn1)c1ccc(F)cc1F)S(=O)(=O)N1CCN(c2ccccn2)CC1 [Compound 74, 4-[(2R,3R)-3-(2,4-difluorophenyl)-3-hydroxy-4-(1H-1,2,4-triazol-1-yl)-2-butanesulfonyl]-1-(2-pyridyl) piperazine] | 44 |
| C[C@H]([C@](O)(Cn1cncn1)c1ccc(F)cc1F)S(=O)(=O)N(C)c1ncccn1 [Compound 77, N-methyl-N-(2-pyrimidinyl)-[(2R,3R)-3-(2,4-difluorophenyl)-3-hydroxy-4-(1H-1,2,4-triazol-1-yl)-2-butane]sulfonamide] | 40 |
| C[C@H]([C@](O)(Cn1cncn1)c1ccc(F)cc1F)S(=O)(=O)N(C)Cc1ccccn1 [Compound 79] | 30 |
| Cc1ncsc1CCN(C)S(=O)(=O)[C@H](C)[C@](O)(Cn1cncn1)c1ccc(F)cc1F [Compound 80] | 40 |
| Cc1nnc(N(C)S(=O)(=O)[C@H](C)[C@](O)(Cn2cncn2)c2ccc(F)cc2F)s1 [Compound 81] | 40 |
| CSc1nnc(CN(C)S(=O)(=O)[C@H](C)[C@](O)(Cn2cncn2)c2ccc(F)cc2F)s1 [Compound 82] | 40 |
| CSc1nnc(CCN(C)S(=O)(=O)[C@H](C)[C@](O)(Cn2cncn2)c2ccc(F)cc2F)s1 [Compound 83] | 40 |
| C[C@H]([C@](O)(Cn1cncn1)c1ccc(F)cc1F)S(=O)(=O)N(C)CCc1nnc(S(C)(=O)=O)s1 [Compound 84] | 23 |
| C[C@H]([C@](O)(Cn1ccnc1)c1ccc(F)cc1F)S(=O)(=O)N(C)C [Compound 85, N,N-dimethyl-[(2R,3R)-3-(2,4-difluorophenyl)-3-hydroxy-4-(1-imidazolyl)-2-butane]sulfonamide] | 45 |
| C[C@@H](NS(=O)(=O)c1cccs1)[C@](O)(Cn1cncn1)c1ccc(F)cc1F [Compound 87] | 38 |
| C[C@@H](N(C)S(=O)(=O)c1nccn1C)[C@](O)(Cn1cncn1)c1ccc(F)cc1F [Compound 88] | 46 |
| CC(=O)Nc1nc(C)c(S(=O)(=O)N(C)[C@H](C)[C@](O)(Cn2cncn2)c2ccc(F)cc2F)s1 [Compound 89] | 35 |
| C[C@@H](N(C)S(=O)(=O)c1cccs1)[C@](O)(Cn1cncn1)c1ccc(F)cc1F [Compound 90] | 40 |
| C[C@H]([C@](O)(Cn1cncn1)c1ccc(F)cc1F)S(=O)(=O)N1CCN(c2ncncc2F)CC1 [Compound 92] | 53 |

Same assay, conditions: Table 5; Medium A, 28° C., two-day culture, 1000 μ/ml, 8 mm disc

| Structure (SMILES) | Diameter of growth-inhibition zone [mm] |
| --- | --- |
| CC(=C(Cn1cncn1)c1ccc(F)cc1F)S(=O)(=O)N(C)C (single isomer, unassigned) [Compound 35, N,N-dimethyl-3-(2,4-difluorophenyl)-4-(1H-1,2,4-triazol-1-yl)-2-butene-2-sulfonamide] | 30 |
